In one experiment the test system is SARS-CoV-2 Delta. Description: microbe, parasite or virus in culture. It is filed as cell-based. Particulars: Severe acute respiratory syndrome coronavirus 2, 24 h.
For another experiment, the target named is TMPRSS2 (Homo sapiens, UniProt O15393). Description: In vitro enzyme activity inhibition assay (TMPRSS2, substrate Boc-Gln-Ala-Arg-AMC). The note with it: cross-validation; FIG. 2B.
For another experiment, the target named is Cathepsin L (Homo sapiens, UniProt P07711). Description: In vitro enzyme activity inhibition assay (Cathepsin L, substrate Cbz-Phe-Arg-AMC). The experiment is classed as biochemical. The note with it: cross-validation; FIG. 2A.
Chain of Cathepsin L (P07711 114-333): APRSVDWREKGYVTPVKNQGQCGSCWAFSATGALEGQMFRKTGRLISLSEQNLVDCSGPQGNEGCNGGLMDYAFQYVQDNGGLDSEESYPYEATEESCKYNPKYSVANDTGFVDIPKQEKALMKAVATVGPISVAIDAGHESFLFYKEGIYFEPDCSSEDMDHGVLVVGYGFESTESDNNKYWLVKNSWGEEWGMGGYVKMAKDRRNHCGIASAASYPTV

The term EC50 denotes the concentration at which the effect is half-maximal.

Chain of TMPRSS2 (O15393 whole entry): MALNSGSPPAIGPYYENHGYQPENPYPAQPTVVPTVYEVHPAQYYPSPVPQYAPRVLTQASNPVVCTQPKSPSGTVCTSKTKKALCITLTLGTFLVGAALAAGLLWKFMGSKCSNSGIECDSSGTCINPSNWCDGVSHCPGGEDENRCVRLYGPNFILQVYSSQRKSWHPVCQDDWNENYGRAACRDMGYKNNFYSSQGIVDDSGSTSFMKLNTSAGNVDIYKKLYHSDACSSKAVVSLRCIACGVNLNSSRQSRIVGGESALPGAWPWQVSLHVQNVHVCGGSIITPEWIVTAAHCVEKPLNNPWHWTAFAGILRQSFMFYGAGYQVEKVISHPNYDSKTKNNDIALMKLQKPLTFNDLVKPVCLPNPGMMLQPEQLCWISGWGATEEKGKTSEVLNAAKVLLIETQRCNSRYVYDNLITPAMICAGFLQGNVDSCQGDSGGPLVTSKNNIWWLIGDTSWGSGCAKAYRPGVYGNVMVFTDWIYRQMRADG
Description for Cathepsin L: (§1) Columns 15 to 20 were added with an equivalent volume of DMSO as a positive control group, and columns 18 to 20 were added with an equivalent volume of buffer as a negative control group. […] The 384-well plate was placed in a microplate reader for detection, and the slope of fluorescence intensity increase in the first 2 minutes of the enzymatic reaction was taken as the activity of the protein for subsequent calculation.
Description for TMPRSS2: as §1

For the molecule `CN1CCN(C(=O)N[C@@H](Cc2ccccc2)C(=O)N[C@H](/C=C/S(=O)(=O)c2ccccc2)CCc2ccccc2)CC1` [K777], in the experiment on SARS-CoV-2 Delta ([…], combination at a molar ratio of 1:1, FIG. 3), the EC50 is 660 nM. Also, the “inhibitory activity against TMPRSS2” value against TMPRSS2 is on record as “no inhibitory activity”.

With `N=C(N)Nc1ccc(C(=O)Oc2ccc3cc(C(=N)N)ccc3c2)cc1` [Nafamostat], on Cathepsin L, the “inhibitory activity against Cathepsin L” value was “no inhibitory activity”. The EC50 in the experiment with SARS-CoV-2 Delta is 20 nM.

The values above are taken from patent publication EP4606376A1 (ShanghaiTech University, priority 2022, dated 2024).
